Data reported in EP3833345B1, “SMALL MOLECULE-INHIBITORS OF 6-PHOSPHOFRUCTO-1-KINASE FOR REDUCING LACTATE GENERATION BY CANCER CELLS” (Kemijski Institut, priority 2018, dated 2020).
“Also recorded” adds a separate entry of the source.

Legend:
Jurkat cells [1] = experiment: Seahorse XF assay (ECAR and OCR) in Jurkat cells; format: cell-based, human
Protocol: The efficiency of Inhibitors No. 3 and No. 9 was also tested by the determinations of glycolytic capacities in Jurkat cells in the presence and absence of inhibitors. For this purpose, Seahorse XF assay (Agilent Technology) was performed that enables non-destructive measurements of extracellular acidification rate (ECAR) and oxygen consumption rate (OCR) of tested cells. The cells were incubated in […] GlutaMAX medium with 10% FBS and 24 hours before the experiment inhibitors were added (100 µM). Non-adherent Jurkat cells (1×10^6 per mL) were stuck to the bottom of the wells by poly-I-lysine. The experiment was conducted essentially as recommended by Seahorse XF protocol and after 20 minutes of incubation, 1 µM of oligomycin A (ATP synthase inhibitor) and 0,25 µM of Carbonyl cyanide-4-(trifluoromethoxy)phenylhydrazone (FCCP) (mitochondrial oxidative phosphorylation uncoupler) were added to the cells. […] Reduced lactate excretion by the cells treated with both inhibitors might be responsible for reduced ECARs. Although the addition of oligomycin A and FCCP increased the extracellular acidification rate by the cells treated with both inhibitors, similar increase of ECAR was also observed in the untreated cells. […] It implies that inhibited PFK1 enzymes might reduce glycolytic flux and prevent the need for pyruvate reduction into lactate by re-oxidizing redundant cytosolic NADH. Under such conditions pyruvate can enter mitochondria, replenishing tri-carboxylic acids (TCA) cycle and fuelling oxidative respiration.

Jurkat cells [2] = experiment: long-term fed-batch cultivation of Jurkat cells (18 days); settings: 100 µM, fed-batch, 18 days
Jurkat cells [3] = experiment: growth and survival of Jurkat cells (Countess, Trypan blue); format: cell-based
Protocol: The effects of both inhibitors were tested also on growth of the non-adherent Jurkat cells. Total amount of cells and the number of dead cells was determined by the Countess (Invitrogen, Carlsbad, CA). […].

Jurkat cells [4] = experiment: lactate excretion by Jurkat cells (enzymatic L-lactic acid kit); format: cell-based, human
Protocol: The cells were incubated in 1 mL volume (24 well plates) at 5% CO2 and 37°C. The inhibitors were added in 100 µM concentration. As a control, equivalent amount of DMSO as used for the addition of inhibitors was supplemented to the medium. The tests started with 1×10^5 cells per mL. Extracellular lactate excreted by the Jurkat cells was measured in the supernatant of the growth medium after the cells were removed by centrifugation at 1500 rpm for 5 minutes. Lactate concentration was determined enzymatically using L-Lactatic acid kit (K-LATE, Megazyme, Ireland).
Measurements of lactate excretion in the tumorigenic Jurkat cells and the cells treated with two selected inhibitors at different concentrations were repeated by more detailed measurements. The growth conditions were identical to those described in Experiment 2. No significant difference in lactate excretion could be observed by the treated and untreated cells during the initial stage of growth that lasted for approximately 12 hours. Later on lactate excretion by the Jurkat cells ceased in the presence of both inhibitors.

Jurkat cells [5] = experiment: NADH levels in Jurkat cells (NADH/NAD fluorometric assay kit); format: cell-based, human; settings: 24 hours after addition, different concentrations
Protocol: By inhibiting modified PFK-M enzyme in the cancer cells, glycolytic flux should be decreased and concomitantly NADH levels reduced. To verify that, the amounts of reduced pyridine nucleotide was measured by NADH/NAD fluorometric assay kit (Abcam). The Jurkat cells were seeded into the wells of 96 wells plate at 5×10^5 cells per mL. The untreated cells (control) and the cells with specified amounts of added Inhibitors No. 3 and No. 9 were incubated for 24 hours.

COLO 829 cells [6] = experiment: cytotoxicity in COLO 829 cells (LDH kit); format: cell-based; settings: for average percentages of dead cells, COLO 829, sequential re-insertion: sequential addition at 24-hour intervals, 92 hours, average over medium without and with inhibitor; for average percent of dead COLO 829 cells: single addition, average over control and different concentrations of inhibitor
Protocol: (§1) Lactate generation, growth yield and survival under normal and inhibitory conditions of three different tumorigenic cells lines were determined in more detailed measurements. […] Cytotoxicity was measured by the Lactate dehydrogenase (LDH) kit (Roche).

MDA-MB-231 cells [7] = experiment: cytotoxicity in MDA-MB-231 cells (LDH kit); format: cell-based; settings: for average percentages of dead cells, MDA-MB-231, sequential re-insertion: sequential addition at 24-hour intervals, 92 hours, average over medium without and with inhibitor; for average percent of dead MDA-MB-231 cells: single addition, average over control and different concentrations of inhibitor
Protocol: as §1
Inhibitors No. 23, 29, 30 and 31 were tested for preventing lactate generation by the MDA-MB-231 cells.

Caco-2 cells [8] = experiment: cytotoxicity in Caco-2 cells (lactate dehydrogenase (LDH) kit); format: cell-based; settings: for average percent of dead cells, Caco-2: single addition, average over control and different concentrations of inhibitor
Protocol: as §1

COLO 829 cells [9] = experiment: lactate excretion by COLO 829 cells; format: cell-based; settings: for lactate formation in COLO 829 cells, sequential re-insertion: inhibitor added 8 hours after inoculation, then at 24-hour intervals, low concentrations (from 10 µM)
Protocol: (§2) Preliminary in vivo tests were run by measuring lactate production by three different tumorigenic cell lines. Again, 100 µM concentrations of tested compounds have been added to the medium. For the experiment, the following tumorigenic cells lines originating from different tumours were tested: Caco-2 cells (Figure 10a), originating from colorectal adenoma carcinoma; COLO 829 cells (Figure 10b), isolated from melanoma; and MDA-MB-231 cells (Figure 10c) derived from metastatic phase of mammary/breast cancer. All adherent cell lines were grown in the RPMI 1640 GlutaMAX substrate (Thermo Fisher) supplemented with 10% FBS.
On the basis of preliminary results, inhibitors No. 23, 29, 30 and 31 were tested on COLO 829 cells. […] No significant discrepancies of total cell numbers in respect to the control were observed due to the different concentrations of inhibitors in the medium (Figure 13e). The average percent of dead COLO 829 cells in the control and in the presence of different concentrations of inhibitors were as follows: inh. 23 (9,23±0,6%), inh. 29 (9,31±0,73%), inh. 30 (8,27±0,49%), inh. 31 (8,26±0,38%). Additionally, cytotoxicity of inh. 3 (5,01±1,08%) and 9 (3,65±0,78%) for COLO 829 cells were also determined. No dose dependent decrease of survival was observed by any inhibitor.
(§3) A decrease in inhibitory effectiveness of some compounds was observed after certain period of time (Example 11). […] Therefore, the influence of selected inhibitors was assessed by sequential re-insertion of low concentrations of inhibitors at indicated time points. The inhibitors were first added to the medium 8 hours after the inoculation followed by periodically additions at 24-hour intervals (marked by arrows).
No significant cytostatic (Figure 16f) of cytotoxic effect of inhibitors could be detected after 92 hours of incubation despite of sequential addition of various concentrations of inhibitors. The following average percentages of dead cells were perceived in the medium without and media with inh. 3 (1,95±0,15%) inh. 9 (1,70±0,14%), inh. 23 (2,40±0,09%), inh. 29 (1,66±0,25%) and inh. 30 (1,38±0,18%). No detrimental effects of increased inhibitors concentrations on cell deaths have been observed.

MDA-MB-231 cells [10] = experiment: lactate excretion by MDA-MB-231 cells; format: cell-based; settings: single addition, different concentrations
Protocol: as §2
Inhibitors No. 23, 29, 30 and 31 were tested for preventing lactate generation by the MDA-MB-231 cells. […] No significant discrepancies of total cell numbers were observed (Figure 14e) due to the different concentrations of inhibitors in the medium. […] The average percent of dead MDA-MB-231 cells in the control and in the presence of different concentrations of inhibitors were as follows: inh. 23 (2,98±0,2%), inh. 29 (3,37±0,39%), inh. 30 (3,4±0,21%), inh. 31 (6,87±0,44%). Additionally, cytotoxicity of inh. 3 (7,2±0,47%) and 9 (6,59±0,29%) for MDA-MB-231 cells were also determined. No dose dependent decrease of survival was observed by any inhibitor.
as §3
In MDA-MB-231 calls similar results to those found in Caco-2 cells were observed. […] No significant cytostatic (Figure 17f) or cytotoxic effect of inhibitors could be detected after 92 hours of incubation despite of sequential addition of various concentrations of inhibitors. The following average percentages of dead cells were perceived in the medium without and with inh. 3 (2,05±0,18%), inh. 9 (1,85±0,05%), inh. 23 (2,20±0,15%), inh. 29 (1,54±0,16%) and inh. 30 (2,00±0,18%). No detrimental effects of increased inhibitors concentrations on cell deaths have been observed.

Caco-2 cells [11] = experiment: total cell numbers of Caco-2 cells at end of incubation; format: cell-based; settings: single addition, end of incubation (92 hours)
Protocol: as §1

[12] = target: T1, modified (70 kDa) 6-phosphofructo-1-kinase (PFK-L), sfPFK-L (Homo sapiens, UniProt P17858); experiment: in vitro inhibition of purified recombinant modified PFK-L fragment
T1 sequence (P17858 1-645 limits assumed): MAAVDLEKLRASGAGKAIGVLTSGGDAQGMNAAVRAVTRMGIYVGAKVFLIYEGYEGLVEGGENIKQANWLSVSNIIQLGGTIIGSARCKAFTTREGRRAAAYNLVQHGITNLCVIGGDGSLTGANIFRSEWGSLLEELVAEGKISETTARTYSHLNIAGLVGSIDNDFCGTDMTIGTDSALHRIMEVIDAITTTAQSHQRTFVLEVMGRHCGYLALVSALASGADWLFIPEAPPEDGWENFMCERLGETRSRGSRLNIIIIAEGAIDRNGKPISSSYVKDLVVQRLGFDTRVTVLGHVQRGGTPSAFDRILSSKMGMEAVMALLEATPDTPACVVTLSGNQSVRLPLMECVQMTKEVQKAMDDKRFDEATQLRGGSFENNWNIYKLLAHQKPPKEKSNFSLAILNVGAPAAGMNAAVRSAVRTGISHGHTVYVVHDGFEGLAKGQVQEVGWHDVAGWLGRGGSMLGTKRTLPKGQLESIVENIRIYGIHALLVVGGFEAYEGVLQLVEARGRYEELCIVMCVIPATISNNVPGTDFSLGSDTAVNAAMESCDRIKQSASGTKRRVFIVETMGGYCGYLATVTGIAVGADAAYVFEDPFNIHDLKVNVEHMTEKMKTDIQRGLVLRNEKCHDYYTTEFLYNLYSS

Caco-2 cells [13] = experiment: lactate excretion by Caco-2 cells; format: cell-based; settings: single addition, different concentrations (20-80 µM)
Protocol: as §2, with “Again, 100 µM concentrations of tested compounds have been added to the medium.” left out, “cancer.” for “cancer. All adherent cell lines were grown in the RPMI 1640 GlutaMAX substrate (Thermo Fisher) supplemented with 10% FBS.”
as §1
Therefore, the influence of selected inhibitors was assessed by sequential re-insertion of low concentrations of inhibitors at indicated time points. The inhibitors were first added to the medium 8 hours after the inoculation followed by periodically additions at 24-hour intervals (marked by arrows).

SMILES	average percentages of dead cells, COLO 829, sequential re-insertion (COLO 829 cells [6])	average percent of dead COLO 829 cells (COLO 829 cells [6])	average percentages of dead cells, MDA-MB-231, sequential re-insertion (MDA-MB-231 cells [7])	average percent of dead MDA-MB-231 cells (MDA-MB-231 cells [7])	average percent of dead cells, Caco-2 (Caco-2 cells [8])	lactate formation in COLO 829 cells, sequential re-insertion (COLO 829 cells [9])	IC50 [12] [µM]	further results
COc1ccc(-c2cccc(-c3ccn(Cc4noc(C)n4)n3)c2)nn1 [Inhibitor No. 9, 3-methoxy-6-(3-{1-[(5-methyl-1,2,4-oxadiazol-3-yl)methyl]-1H-pyrazol-3-yl}phenyl)pyridazine]	1,70±0,14%	3,65±0,78%	1,85±0,05%	6,59±0,29%	3,33±0,14%	strong reduction of lactate formation	–	ECAR and OCR values prior to the addition of oligomycin A and FCCP (Jurkat cells [1]; 100 µM added 24 hours before the experiment, treated versus untreated cells): untreated Jurkat cells revealed higher ECAR and OCR values; oxygen consumption rate after addition of oligomycin A and FCCP (Jurkat cells [1]; 100 µM, 1 µM oligomycin A and 0,25 µM FCCP, versus untreated cells): slightly stronger affect; viability of the Jurkat cells, long-term (Jurkat cells [2]): remained unchanged; number of cells, long-term (Jurkat cells [2]; fresh medium with inhibitor every 48 hours): steadily declined; dead cells (Jurkat cells [3]; Jurkat cells stained with Tripan blue): 3,76±0,3%; effect on growth of Jurkat cells (total cell numbers) (Jurkat cells [3]; different concentrations, 72 hours): no effect; time at which lactate production was averted (Jurkat cells [4]; inhibitor concentrations lower than 200 µM): 36 h; lactate excretion by the Jurkat cells (Jurkat cells [4]; preliminary test, 100 µM inhibitor, followed for 48 hours, versus DMSO control): Significantly lowered lactate excretions; also recorded: effectively prevented excretion; NADH levels (Jurkat cells [5]): steadily decreased in dose dependent manner; average percentages of dead cells, Caco-2, sequential re-insertion (Caco-2 cells [8]; sequential addition at 24-hour intervals, 92 hours, average over medium without and with inhibitor): 5,05±0,62%
Nc1nnc(-c2cc(-c3ccc(O)cc3)on2)o1 [Inhibitor No. 30, 4-[3-(5-amino-1,3,4-oxadiazol-2-yl)isoxazol-5-yl]phenol]	1,38±0,18%	8,27±0,49%	2,00±0,18%	3,4±0,21%	–	slightly weaker inhibitions	10	lactate excretion by MDA-MB-231 cells (MDA-MB-231 cells [10]): strong inhibition; total cell numbers, Caco-2 (Caco-2 cells [11]): minor dose dependent reductions in total cell numbers; lactate excretion by COLO 829 cells (COLO 829 cells [9]; single addition, different concentrations): strongest reductions of lactate excretion
O=C(CCS(=O)(=O)c1ccccc1)Nc1nnc(-c2ccno2)o1 [Inhibitor No. 32, 3-(benzenesulfonyl)-N-(5-isoxazol-5-yl-1,3,4-oxadiazol-2-yl)propanamide]	–	–	–	–	3,97±0,18%	–	8	lactate generation by Caco-2 cells (Caco-2 cells [13]): strong inhibition at all tested concentrations
